Test results: article PMC8850549 (Toxicology Reports, 2022)
Values joined by “and” are separate entries in the source; they are usually repeats but may differ in a detail not shown here. Equal values may be shown once. “Also recorded” adds a separate entry of the source. Read-outs that look alike come from different tables or passages of the source.

Key:
[1] = test system: Salmonella typhimurium TA100; assay: Bacterial reverse mutation test; format: cell-based; settings: for mutagenic response (increase in mutation frequencies): with rat liver S9, preincubation and plate incorporation
[2] = test system: Salmonella typhimurium TA1535; assay: Bacterial reverse mutation test; format: cell-based; settings: for mutagenic response (increase in mutation frequencies): with rat liver S9, preincubation and plate incorporation; for fold increase in mutation frequencies: rat liver S9, 5000 μg/plate
E. coli WP2 uvrA = assay: Bacterial reverse mutation test; format: cell-based; settings: for mutagenic response (increase in mutation frequencies): with rat liver S9, preincubation and plate incorporation
TA98 = assay: Bacterial reverse mutation test; format: cell-based, Salmonella typhimurium; settings: under any condition (preincubation or plate incorporation, with or without S9)
TA1537 = assay: Bacterial reverse mutation test; format: cell-based, Salmonella typhimurium; settings: under any condition (preincubation or plate incorporation, with or without S9)
TA1535 = settings: cited from earlier work
[3] = test system: Salmonella typhimurium and E. coli strains; assay: Bacterial reverse mutation test; format: cell-based; settings: rat liver S9, solvent water
bacterial mutagenicity = settings: cited from earlier work
[4] = plate incorporation, solvent DMSO, rat liver S9, at 5000 μg/plate only
[5] = preincubation, solvent water, rat liver S9, 5000 μg/plate

CCCCN(CCCC)N=O [NDBA, N-nitrosodibutylamine]
mutagenic response (increase in mutation frequencies) [1]: relevant increases | fold induction, plate incorporation compared with preincubation ([2]; rat liver S9, solvent DMSO): higher fold inductions using the plate incorporation protocol | mutagenic response (increase in mutation frequencies) [2]: relevant increases | fold induction, plate incorporation compared with preincubation (E. coli WP2 uvrA; rat liver S9, solvent DMSO): higher fold inductions using the plate incorporation protocol | mutagenic response (increase in mutation frequencies) (E. coli WP2 uvrA): relevant increases

CCN(CC)N=O [NDEA, N-nitrosodiethylamine]
fold increase in mutation frequencies (above threshold) [1, 4]: > 2 fold | fold change with water compared with DMSO as solvent ([1]; preincubation, rat liver S9): no change | fold increase in mutation frequencies [1, 5]: about 4 fold | mutagenic response (increase in mutation frequencies) [1]: exponential increase in mutation frequencies | fold increase in mutation frequencies (above threshold) [2, 4]: > 3 fold | fold change with water compared with DMSO as solvent ([2]; preincubation, rat liver S9): slightly increased fold changes; also recorded: slightly higher mutation frequencies | fold increase in mutation frequencies ([2]; preincubation, solvent DMSO): ~5 fold and 4 fold | fold increase in mutation frequencies ([2]; preincubation, solvent water): ~9 fold | mutagenic response (increase in mutation frequencies) [2]: exponential increase in mutation frequencies | fold increase in mutation frequencies (E. coli WP2 uvrA; plate incorporation, solvent DMSO, rat liver S9, top concentration 5000 μg/plate): 12 fold | fold change with water compared with DMSO as solvent (E. coli WP2 uvrA; preincubation, rat liver S9): slightly increased fold changes; also recorded: slightly higher mutation frequencies | fold increase in mutation frequencies (E. coli WP2 uvrA; preincubation, solvent DMSO, rat liver S9, 5000 μg/plate): ~30 fold | fold increase in mutation frequencies (E. coli WP2 uvrA; [5]): ~39 fold | mutagenic response (increase in mutation frequencies) (E. coli WP2 uvrA): exponential increase in mutation frequencies | mutagenic response (TA98): no response | mutagenic response (TA1537): no response | mutagenicity (TA1535; hamster S9): mutagenic | mutagenicity (TA1535; rat S9): not with rat S9

CN(C)N=O [NDMA, N-nitrosodimethylamine]
detection of mutagenicity ([3]; plate incorporation protocol): fails; also recorded: no clear positive response | detection of mutagenicity ([3]; preincubation protocol): allows the detection of mutagenicity | mutagenicity (TA1535; hamster S9): mutagenic | mutagenicity (TA1535; rat S9): not with rat S9 | detection of bacterial mutagenicity (bacterial mutagenicity; plate incorporation): failed | detection of bacterial mutagenicity (bacterial mutagenicity; preincubation protocol): allowed to detect

CCCN(CCC)N=O [NDPA, N-nitrosodipropylamine]
mutagenic response (increase in mutation frequencies) [1]: relevant increases | mutagenic response (increase in mutation frequencies) [2]: relevant increases | mutagenic response (increase in mutation frequencies) (E. coli WP2 uvrA): relevant increases
